Measurements: patent US9884832B2 (priority 2011, dated 2018)
Where two headings read alike, the source gives them in different places.

Legend:
[1] = molecular target: AM2 S31N (serine→asparagine mutation at residue 31 in the M2 protein) (Influenza A virus, UniProt P0DOF5, S31N); assay type: cell-based, influenza virus A/Udorn/72
[2] = molecular target: AM2 V27A (valine→alanine mutation at residue 27 in the M2 protein) (Influenza A virus, UniProt P0DOF5, V27A); assay type: cell-based, influenza virus A/Udorn/72

Row | SMILES | S31N OOcyte Inhibition at 100 uM (%) [1] | V27A OOcyte Inhibition at 100 uM (%) [2] | S31N OOcyte Inhibition at 100 uM (%) ([1]; pH 5.5) | V27A OOcyte Inhibition at 100 uM (%) ([2]; pH 5.5)
1 | CCSc1ccc(CNC23CC4CC(CC(C4)C2)C3)cc1 [Example 12a, N-(4-(ethylthio)benzyl)adamantan-1-amine] | A (key: (A)=31-95%; (B)=0-30%) | B (key: (A)=31-95%; (B)=0-30%) | – | –
2 | NCc1ccc(CNC23CC4CC(CC(C4)C2)C3)cc1 [Example 13, Adamantan-1-yl-(4-aminomethyl-benzyl)-amine] | – | – | B (key: (A)=31-95%; (B)=0-30%) | A (key: (A)=31-95%; (B)=0-30%)
3 | c1ccc(Oc2ccc(CNC34CC5CC(CC(C5)C3)C4)cc2)cc1 [Example 13a, Adamantan-1-yl-(4-phenoxy-benzyl)-amine] | A (key: (A)=31-95%; (B)=0-30%) | B (key: (A)=31-95%; (B)=0-30%) | – | –
4 | N#Cc1ccc(CNC23CC4CC(CC(C4)C2)C3)cc1 [Example 14, 4-(Adamantan-1-ylaminomethyl)-benzonitrile] | – | – | B (key: (A)=31-95%; (B)=0-30%) | B (key: (A)=31-95%; (B)=0-30%)
5 | COc1cccc(COc2ccc(CNC34CC5CC(CC(C5)C3)C4)cc2)c1 [Example 14a, Adamantan-1-yl-[4-(3-methoxy-benzyloxy)-benzyl]-amine] | A (key: (A)=31-95%; (B)=0-30%) | B (key: (A)=31-95%; (B)=0-30%) | – | –
6 | c1cc(-c2nnn[nH]2)ccc1CNC12CC3CC(CC(C3)C1)C2 [Example 15, Adamantan-1-yl-[4-(1H-tetrazol-5-yl)-benzyl]amine] | – | – | B (key: (A)=31-95%; (B)=0-30%) | B (key: (A)=31-95%; (B)=0-30%)
7 | COc1ccccc1COc1ccc(CNC23CC4CC(CC(C4)C2)C3)cc1 [Example 15a, Adamantan-1-yl-[4-(2-methoxy-benzyloxy)-benzyl]-amine] | A (key: (A)=31-95%; (B)=0-30%) | B (key: (A)=31-95%; (B)=0-30%) | – | –
8 | COc1ccc(CNC23CC4CC(CC(C4)C2)C3)cc1 [Example 16, Adamantan-1-yl-(4-methoxy-benzyl)-amine] | – | – | A (key: (A)=31-95%; (B)=0-30%) | A (key: (A)=31-95%; (B)=0-30%)
9 | Clc1ccc(COc2ccc(CNC34CC5CC(CC(C5)C3)C4)cc2)cc1 [Example 16a, Adamantan-1-yl-[4-(4-chloro-benzyloxy)-benzyl]-amine] | A (key: (A)=31-95%; (B)=0-30%) | B (key: (A)=31-95%; (B)=0-30%) | – | –
10 | NC(=O)c1ccc(CNC23CC4CC(CC(C4)C2)C3)cc1 [Example 18, 4-(Adamantan-1-ylaminomethyl)-benzamide] | – | – | B (key: (A)=31-95%; (B)=0-30%) | B (key: (A)=31-95%; (B)=0-30%)
11 | O=[N+]([O-])c1ccc(CNC23CC4CC(CC(C4)C2)C3)cc1 [Example 19, Adamantan-1-yl-(4-nitro-benzyl)-amine] | – | – | B (key: (A)=31-95%; (B)=0-30%) | B (key: (A)=31-95%; (B)=0-30%)
12 | CCOc1ccc(CNC23CC4CC(CC(C4)C2)C3)cc1 [Example 20, Adamantan-1-yl-(4-ethoxy-benzyl)-amine] | – | – | A (key: (A)=31-95%; (B)=0-30%) | B (key: (A)=31-95%; (B)=0-30%)
13 | c1coc(COc2ccc(CNC34CC5CC(CC(C5)C3)C4)cc2)c1 [Example 21, Adamantan-1-yl-[4-(furan-2-ylmethoxy)-benzyl]-amine] | – | – | A (key: (A)=31-95%; (B)=0-30%) | A (key: (A)=31-95%; (B)=0-30%)
14 | c1cc(COc2ccc(CNC34CC5CC(CC(C5)C3)C4)cc2)co1 [Example 22, Adamantan-1-yl-[4-(furan-3-ylmethoxy)-benzyl]-amine] | – | – | A (key: (A)=31-95%; (B)=0-30%) | B (key: (A)=31-95%; (B)=0-30%)
15 | CSc1ccc(CNC23CC4CC(CC(C4)C2)C3)cc1 [Example 23, Adamantan-1-yl-(4-methylsulfanyl-benzyl)-amine] | – | – | A (key: (A)=31-95%; (B)=0-30%) | B (key: (A)=31-95%; (B)=0-30%)
16 | C[S+]([O-])c1ccc(CNC23CC4CC(CC(C4)C2)C3)cc1 (stereo not drawn) [Example 24, Adamantan-1-yl-(4-methanesulfinyl-benzyl)-amine] | – | – | B (key: (A)=31-95%; (B)=0-30%) | B (key: (A)=31-95%; (B)=0-30%)
17 | CS(=O)(=O)c1ccc(CNC23CC4CC(CC(C4)C2)C3)cc1 [Example 25, Adamantan-1-yl-(4-methanesulfonyl-benzyl)-amine] | – | – | B (key: (A)=31-95%; (B)=0-30%) | B (key: (A)=31-95%; (B)=0-30%)

Row | SMILES | S31N OOcyte Inhibition at 100 uM (%) [1] | V27A OOcyte Inhibition at 100 uM (%) [2] | S31N OOcyte Inhibition at 100 uM (%) ([1]; pH 5.5) | V27A OOcyte Inhibition at 100 uM (%) ([2]; pH 5.5)
18 | FC(F)(F)Sc1ccc(CNC23CC4CC(CC(C4)C2)C3)cc1 [Example 26, Adamantan-1-yl-(4-trifluoromethylsulfanyl-benzyl)-amine] | – | – | A (key: (A)=31-95%; (B)=0-30%) | B (key: (A)=31-95%; (B)=0-30%)
19 | Fc1ccc(CNC23CC4CC(CC(C4)C2)C3)cc1 [Example 27, Adamantan-1-yl-(4-fluoro-benzyl)-amine] | – | – | B (key: (A)=31-95%; (B)=0-30%) | B (key: (A)=31-95%; (B)=0-30%)
20 | Oc1ccccc1CNC12CC3CC(CC(C3)C1)C2 [Example 28, 2-(Adamantan-1-ylaminomethyl)-phenol] | – | – | B (key: (A)=31-95%; (B)=0-30%) | B (key: (A)=31-95%; (B)=0-30%)
21 | COc1ccccc1CNC12CC3CC(CC(C3)C1)C2 [Example 29, Adamantan-1-yl-(2-methoxy-benzyl)-amine] | – | – | B (key: (A)=31-95%; (B)=0-30%) | B (key: (A)=31-95%; (B)=0-30%)
22 | c1csc(-c2ccc(CNC34CC5CC(CC(C5)C3)C4)cc2)c1 [Example 29a, N-(4-(Thiophen-2-yl)benzyl)adamantan-1-amine methanesulfonate] | A (key: (A)=31-95%; (B)=0-30%) | B (key: (A)=31-95%; (B)=0-30%) | – | –
23 | O=[N+]([O-])c1ccccc1CNC12CC3CC(CC(C3)C1)C2 [Example 30, Adamantan-1-yl-(2-nitro-benzyl)-amine] | – | – | B (key: (A)=31-95%; (B)=0-30%) | B (key: (A)=31-95%; (B)=0-30%)
24 | c1cc(CNC23CC4CC(CC(C4)C2)C3)cc(-c2ccco2)c1 [Example 30a, N-(3-(Furan-2-yl)benzyl)adamantan-1-amine] | B (key: (A)=31-95%; (B)=0-30%) | A (key: (A)=31-95%; (B)=0-30%) | – | –
25 | Oc1cccc(CNC23CC4CC(CC(C4)C2)C3)c1 [Example 31, 3-(Adamantan-1-ylaminomethyl)-phenol] | – | – | B (key: (A)=31-95%; (B)=0-30%) | A (key: (A)=31-95%; (B)=0-30%)
26 | c1coc(-c2ccc(CNC34CC5CC(CC(C5)C3)C4)cc2)c1 [Example 31a, N-(4-(Furan-2-yl)benzyl)adamantan-1-amine] | A (key: (A)=31-95%; (B)=0-30%) | B (key: (A)=31-95%; (B)=0-30%) | – | –
27 | COc1ccc(CN(C)C23CC4CC(CC(C4)C2)C3)cc1 [Example 32, Adamantan-1-yl-(4-methoxy-benzyl)-methyl-amine] | – | – | B (key: (A)=31-95%; (B)=0-30%) | B (key: (A)=31-95%; (B)=0-30%)
28 | Cc1ccc(-c2ccc(CNC34CC5CC(CC(C5)C3)C4)cc2)o1.Cl [Example 32a, N-(4-(5-Methylfuran-2-yl)benzyl)adamantan-1-amine hydrochloride] | A (key: (A)=31-95%; (B)=0-30%) | B (key: (A)=31-95%; (B)=0-30%) | – | –
29 | CC(=O)Oc1ccc(CNC23CC4CC(CC(C4)C2)C3)cc1 [Example 33, Acetic acid 4-(adamantan-1-ylaminomethyl)-phenyl ester] | – | – | A (key: (A)=31-95%; (B)=0-30%) | B (key: (A)=31-95%; (B)=0-30%)
30 | Cc1noc(C)c1-c1ccc(CNC23CC4CC(CC(C4)C2)C3)cc1 [Example 33a, N-(4-(3,5-Dimethylisoxazol-4-yl)benzyl)adamantan-1-amine] | B (key: (A)=31-95%; (B)=0-30%) | B (key: (A)=31-95%; (B)=0-30%) | – | –
31 | O=C(Oc1ccc(CNC23CC4CC(CC(C4)C2)C3)cc1)C1CC1 [Example 34, Cyclopropanecarboxylic acid 4-(adamantan-1-ylaminomethyl)-phenyl ester] | – | – | B (key: (A)=31-95%; (B)=0-30%) | B (key: (A)=31-95%; (B)=0-30%)
32 | c1cc(CNC23CC4CC(CC(C4)C2)C3)cc(-c2cccs2)c1 [Example 34a, N-(3-(thiophen-2-yl)benzyl)adamantan-1-amine] | B (key: (A)=31-95%; (B)=0-30%) | A (key: (A)=31-95%; (B)=0-30%) | – | –
33 | c1cnn(-c2ccc(CNC34CC5CC(CC(C5)C3)C4)cc2)c1 [Example 35, Adamantan-1-yl-(4-pyrazol-1-yl-benzyl)-amine] | – | – | B (key: (A)=31-95%; (B)=0-30%) | B (key: (A)=31-95%; (B)=0-30%)
